# Results from patent US9708268B2, “ROR modulators and their uses” (INNOV17 LLC, priority 2012, dated 2017).
# Experiments:
# [1] = tested on: IL-17F; experiment: TH17 cytokine inhibition as measured by ELISA (IL-17F); assay type: cell-based; details: 120 h; human CD4+ T cells differentiated to TH17 over 5 days, supernatant ELISA, vs DMSO
# Description: (§1) Peripheral blood mononuclear cells (PBMCs) were sourced from freshly prepared leukocyte enriched plasma (buffy coat) from healthy volunteers from which PBMCs were isolated by density gradient centrifugation using Ficoll-Paque™ PLUS (GE Healthcare). Naïve CD4+ T cells were isolated using the Naïve CD4+ T cell Isolation Kit II (Miltenyi Biotec) as per manufacturer's instructions. CD4+ T cells were plated at 5×10^4 cells/well in 96 well plates pre-coated with immobilized human (h)-αCD3 antibody (eBioscience) then differentiated to TH17 cells using h-αCD28, h-αIFN-γ, h-αIL-4, h-IL-6, h-IL-23, […], h-TGF-β1 (eBioscience) and maintained in a cell culture incubator at 37° C. with 5% CO2 in TexMACS Medium (Miltenyi Biotec) supplemented with 1% Penicillin/Streptomycin (Lonza) over 5 days.
# (§2) Human CD4+ T cells were differentiated to TH17 cells as described in the presence or absence of various concentrations of compounds in a final concentration of 0.1% DMSO in TexMACS medium. Supernatants were collected and stored at −20° C. until they were to be assayed for IL-17A, IL-17F, IL-17AF, IL-21 and/or IL-22 levels as determined by Ready-Set-Go ELISA kits (eBioscience) as per manufacturer's instructions. Endpoint absorbance was read at 450 nm and 570 nm according to manufacturer's instructions (eBioscience) using a microplate reader (Perkin Elmer). The percentage of cytokine inhibition was calculated with reference to DMSO treated cells and the IC50s were determined by GraphPad Prism software and presented in the table below.
# [2] = tested on: IL-17A; experiment: TH17 cytokine inhibition as measured by ELISA (IL-17A); assay type: cell-based; details: 120 h; human CD4+ T cells differentiated to TH17 over 5 days, supernatant ELISA, vs DMSO
# Description: as §1, §2
# [3] = tested on: TH17 cells; experiment: TH17 cellular proliferation (Prestoblue); assay type: cell-based, human; details: 3 μM compound, after 5 day TH17 differentiation, relative to DMSO treated cells
# Description: as §1
# Cellular proliferation was assessed in the presence or absence of 3 μM compound using Prestoblue® Cell Viability Reagent (Life Technologies) as per manufacturer's instructions using absorbance as the output measured by a microplate reader (Perkin Elmer) after 30 minutes of incubation of cells and reagent. A standard curve developed by plotting varying cell numbers versus absorbance was used to assess differences in cellular proliferation between compound treated or untreated cells after the 5 day TH17 differentiation period.
# [4] = TH17 cell viability (Prestoblue); assay type: cell-based; set-up: concentration or dose not given beside the values; details: human; percentage of DMSO treated cells; read-out: % viability of compound treated TH17 cells
# Description: as §1
# Cells were assayed for viability in the presence or absence of compound using Prestoblue® Cell Viability Reagent (Life Technologies) as per manufacturer's instructions after 30 minutes incubation of TH17 cells with reagent. Absorbance was measured at 570 nm and 600 nm using a microplate reader (Perkin Elmer) and data were analyzed as per manufacturer's instructions. Cell viability was expressed as a percentage of DMSO treated cells.
# [5] = tested on: IL-22; experiment: TH17 cytokine inhibition as measured by ELISA (IL-22); assay type: cell-based; details: 120 h; human CD4+ T cells differentiated to TH17 over 5 days, supernatant ELISA, vs DMSO
# Description: as §1, §2
# [6] = tested on: IL-17AF; experiment: TH17 cytokine inhibition as measured by ELISA (IL-17AF); assay type: cell-based; details: 120 h; human CD4+ T cells differentiated to TH17 over 5 days, supernatant ELISA, vs DMSO
# Description: as §1, §2
# [7] = tested on: IL-23R; experiment: Real-time qRT-PCR gene expression in TH17 cells (IL-23R); assay type: cell-based, human; set-up: key: A: No change in gene expression observed relative to DMSO treated TH17 cells; B: Decreased gene expression observed relative to DMSO treated TH17 cells; C: Increased gene expression observed relative to DMSO treated TH17 cells; details: mRNA
# Description: as §1
# (§3) RNA was isolated from TH17 cells and cDNA was synthesized using the Verso cDNA kit (Thermo Scientific) as per manufacturer's instructions. IL-17A, IL-17F, IL-21, IL-22, G-CSF, IL-23R and FOXP3 gene expression were determined for compound treated and untreated TH17 cell samples using Solaris qPCR Gene expression assays (Thermo Scientific) with an iCycler iQ Real-Time PCR Detection System (Bio-Rad). Individual gene expression was normalized to a panel of six reference genes (ACTB, TBP, HPRT1, PGK1, TFRC and PPIA) (Thermo Scientific) and analyzed by REST 2009 (Qiagen) in accordance to MIQE guidelines (Bustin, et al. (2009) Clin. Chem. 55, 611-622), which is hereby incorporated by reference in its entirety). The effects of compounds on TH17 cytokine mRNA levels are presented as fold change in gene expression of compound treated TH17 cells relative to DMSO treated cells in the table below.
# [8] = tested on: IL-22; experiment: Real-time qRT-PCR gene expression in TH17 cells (IL-22); assay type: cell-based, human; set-up: key: A: No change in gene expression observed relative to DMSO treated TH17 cells; B: Decreased gene expression observed relative to DMSO treated TH17 cells; C: Increased gene expression observed relative to DMSO treated TH17 cells; details: mRNA
# Description: as §1, §3
# [9] = tested on: FOXP3; experiment: Real-time qRT-PCR gene expression in TH17 cells (FOXP3); assay type: cell-based, human; set-up: key: A: No change in gene expression observed relative to DMSO treated TH17 cells; B: Decreased gene expression observed relative to DMSO treated TH17 cells; C: Increased gene expression observed relative to DMSO treated TH17 cells; details: mRNA
# Description: as §1, §3
# [10] = tested on: IL-17F; experiment: Real-time qRT-PCR gene expression in TH17 cells (IL-17F); assay type: cell-based, human; set-up: key: A: No change in gene expression observed relative to DMSO treated TH17 cells; B: Decreased gene expression observed relative to DMSO treated TH17 cells; C: Increased gene expression observed relative to DMSO treated TH17 cells; details: mRNA
# Description: as §1, §3
# [11] = tested on: IL-21; experiment: Real-time qRT-PCR gene expression in TH17 cells (IL-21); assay type: cell-based, human; set-up: key: A: No change in gene expression observed relative to DMSO treated TH17 cells; B: Decreased gene expression observed relative to DMSO treated TH17 cells; C: Increased gene expression observed relative to DMSO treated TH17 cells; details: mRNA
# Description: as §1, §3
# [12] = tested on: IL-17A; experiment: Real-time qRT-PCR gene expression in TH17 cells (IL-17A); assay type: cell-based, human; set-up: key: A: No change in gene expression observed relative to DMSO treated TH17 cells; B: Decreased gene expression observed relative to DMSO treated TH17 cells; C: Increased gene expression observed relative to DMSO treated TH17 cells; details: mRNA
# Description: as §1, §3
# [13] = target: human RORγ LBD (Homo sapiens (Human), UniProt P51449); experiment: RORγ LBD binding (Human RORγ Assay System, INDIGO Biosciences)
# Description: Compound binding to the human RORγ LBD was assessed using the Human RORγ Assay System (INDIGO Biosciences Inc.) as per manufacturer's instructions.
# human RORγ LBD, sequence (P51449 269-508): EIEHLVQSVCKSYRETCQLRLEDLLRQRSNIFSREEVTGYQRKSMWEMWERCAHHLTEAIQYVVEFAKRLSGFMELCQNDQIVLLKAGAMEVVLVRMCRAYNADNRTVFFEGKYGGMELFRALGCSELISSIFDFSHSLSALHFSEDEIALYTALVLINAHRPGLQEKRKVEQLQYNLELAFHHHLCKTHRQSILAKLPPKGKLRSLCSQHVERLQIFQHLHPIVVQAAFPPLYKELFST
Structure (SMILES),IC50 [1],IC50 [2],% change in TH17 cell number [3],viability [4],IC50 [5],IC50 [6],"Change in gene expression of compound treated TH17 cells relative to DMSO treated cells, IL-23R [7]","Change in gene expression of compound treated TH17 cells relative to DMSO treated cells, IL-22 [8]","Change in gene expression of compound treated TH17 cells relative to DMSO treated cells, FOXP3 [9]","Change in gene expression of compound treated TH17 cells relative to DMSO treated cells, IL-17F [10]","Change in gene expression of compound treated TH17 cells relative to DMSO treated cells, IL-21 [11]","Change in gene expression of compound treated TH17 cells relative to DMSO treated cells, IL-17A [12]",IC50 [13]
"NC(=O)c1ccc2c(c1)CCN2Cc1ccc(C(O)(C(F)(F)F)C(F)(F)F)cc1 [Example 11, 1-(4-(1,1,1,3,3,3-hexafluoro-2-hydroxypropan-2-yl)benzyl)indoline-5-carboxamide]",< 10 µM,< 10 µM,B (≦50% decrease in cell proliferation relative to DMSO treated TH17 cells),> 80%,< 10 µM,–,–,–,–,–,–,–,–
"NC(=O)c1ccc2c(c1)CCCN2Cc1ccc(C(O)(C(F)(F)F)C(F)(F)F)cc1 [Example 2, 1-(4-(1,1,1,3,3,3-hexafluoro-2-hydroxypropan-2-yl)benzyl)-1,2,3,4-tetrahydroquinoline-6-carboxamide]",< 10 µM,< 10 µM,B (≦50% decrease in cell proliferation relative to DMSO treated TH17 cells),> 80%,< 10 µM,< 10 µM,A,A,A,A,A,A,–
"CNC(=O)c1ccc2c(c1)CCN2Cc1ccc(C(O)(C(F)(F)F)C(F)(F)F)cc1 [Example 12, 1-(4-(1,1,1,3,3,3-hexafluoro-2-hydroxypropan-2-yl)benzyl)-N-methylindoline-5-carboxamide]",< 10 µM,< 10 µM,B (≦50% decrease in cell proliferation relative to DMSO treated TH17 cells),> 80%,> 10 µM,–,–,–,–,–,–,–,–
"CNC(=O)c1ccc2c(c1)CCC(=O)N2Cc1ccc(C(O)(C(F)(F)F)C(F)(F)F)cc1 [Example 6, 1-(4-(1,1,1,3,3,3-hexafluoro-2-hydroxypropan-2-yl)benzyl)-N-methyl-2-oxo-1,2,3,4-tetrahydroquinoline-6-carboxamide]",> 10 µM,> 10 µM,–,> 80%,–,< 10 µM,–,–,–,–,–,–,> 10 µM
"CN(C)C(=O)c1ccc2c(ccc(=O)n2Cc2ccc(C(O)(C(F)(F)F)C(F)(F)F)cc2)c1 [Example 10, 1-(4-(1,1,1,3,3,3-hexafluoro-2-hydroxypropan-2-yl)benzyl)-N,N-dimethyl-2-oxo-1,2-dihydroquinoline-6-carboxamide]",> 10 µM,< 10 µM,B (≦50% decrease in cell proliferation relative to DMSO treated TH17 cells),> 80%,> 10 µM,–,A,A,A,A,A,A,–
"CN(C)C(=O)c1ccc2c(c1)CCN2Cc1ccc(C(O)(C(F)(F)F)C(F)(F)F)cc1 [Example 13, 1-(4-(1,1,1,3,3,3-hexafluoro-2-hydroxypropan-2-yl)benzyl)-N,N-dimethylindoline-5-carboxamide]",< 10 µM,< 10 µM,B (≦50% decrease in cell proliferation relative to DMSO treated TH17 cells),> 80%,< 10 µM,–,–,–,–,–,–,–,–
"CN(C)C(=O)c1ccc2c(c1)CCC(=O)N2Cc1ccc(C(O)(C(F)(F)F)C(F)(F)F)cc1 [Example 7, 1-(4-(1,1,1,3,3,3-hexafluoro-2-hydroxypropan-2-yl)benzyl)-N,N-dimethyl-2-oxo-1,2,3,4-tetrahydroquinoline-6-carboxamide]",< 10 µM,< 10 µM,–,> 80%,–,> 10 µM,–,–,–,–,–,–,–
"NC(=O)c1ccc2c(ccc(=O)n2Cc2ccc(C(O)(C(F)(F)F)C(F)(F)F)cc2)c1 [Example 8, 1-(4-(1,1,1,3,3,3-hexafluoro-2-hydroxypropan-2-yl)benzyl)-2-oxo-1,2-dihydroquinoline-6-carboxamide]",< 10 µM,< 10 µM,B (≦50% decrease in cell proliferation relative to DMSO treated TH17 cells),> 80%,> 10 µM,–,A,C,A,B,A,A,–
"CNC(=O)c1ccc2c(ccc(=O)n2Cc2ccc(C(O)(C(F)(F)F)C(F)(F)F)cc2)c1 [Example 9, 1-(4-(1,1,1,3,3,3-hexafluoro-2-hydroxypropan-2-yl)benzyl)-N-methyl-2-oxo-1,2-dihydroquinoline-6-carboxamide]",> 10 µM,> 10 µM,B (≦50% decrease in cell proliferation relative to DMSO treated TH17 cells),> 80%,> 10 µM,–,A,B,A,B,B,B,–
"NC(=O)c1ccc2c(c1)CCC(=O)N2Cc1ccc(C(O)(C(F)(F)F)C(F)(F)F)cc1 [Example 5, 1-(4-(1,1,1,3,3,3-hexafluoro-2-hydroxypropan-2-yl)benzyl)-2-oxo-1,2,3,4-tetrahydroquinoline-6-carboxamide]",> 10 µM,> 10 µM,–,> 80%,–,> 10 µM,–,–,–,–,–,–,–
